Counter-ions that a name gives are not always drawn.
Legend:
[1] = Residual water content by Karl Fischer titration (KFT); type: physicochemical
Excerpt: Using conditions similar to those previously reported (Li et al., 2014, supra; […], et al., European journal of pharmaceutical sciences: official journal of the European Federation for Pharmaceutical Sciences. Jul. 16, 2013; 49(4):699-711; […], et al., International journal of nanomedicine. 2013; 8:275-293), the residual water content of all SD powders were quantified analytically by Karl Fischer titration (KFT) coulometrically using a TitroLine 7500 trace titrator (SI Analytics, Germany). Approximately 2-10 mg of powder was added to the titration cell containing Hydranal® Coulomat AD reagent. The residual water content was measured at the end of titration.

[2] = Laser diffraction particle size analysis; type: physicochemical; settings: laser sizing, n = 3
Experimental: The laser diffraction particle size analysis was performed on raw Fas and all co-SD samples.

O=S(=O)(c1cccc2cnccc12)N1CCCNCC1 [Raw Fas, Fasudil monohydrochloride hemihydrate salt]
Residual Water content ([1]; n = 3): 2.97 ± 0.06 % w/w | Residual Water content ([1]; n = 3, listed as raw Fas): 2.97 % w/w | DV90 [2]: 7.42 ± 0.19 μm | Dv10 [2]: 3.67 ± 0.32 μm | Dv50 [2]: about 5 μm | Span Value [2]: 0.765 ± 0.15 | Dv50 ([2]; listed as Raw FH): 4.96 ± 3.5 μm
